# Measured values reported in US20260256921A1, “BIFUNCTIONAL MOLECULES TO TARGET DEGRADATION OF TUMOR NECROSIS FACTOR” (Biohaven Therapeutics Ltd., priority 2023, published 2026).
# How the values were obtained:
# [1] = target: T1, Recombinant human ASGPR protein (Homo sapiens, UniProt P07306); assay: GalNAc-PAA human ASGPR1 competition binding assay; details: competition with GalNAc-PAA-biotin 500 ng/ml
# T1 construct: purchased R&D Systems 4394-AS
# T1 sequence (P07306 1-291): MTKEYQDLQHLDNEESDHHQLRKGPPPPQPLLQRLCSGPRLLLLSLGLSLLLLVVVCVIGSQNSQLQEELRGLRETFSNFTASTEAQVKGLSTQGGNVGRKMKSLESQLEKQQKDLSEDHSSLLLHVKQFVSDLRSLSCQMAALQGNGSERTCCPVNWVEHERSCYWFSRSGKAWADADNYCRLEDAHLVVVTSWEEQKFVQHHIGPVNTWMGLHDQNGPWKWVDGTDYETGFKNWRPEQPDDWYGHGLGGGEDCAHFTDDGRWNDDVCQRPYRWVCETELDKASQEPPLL
# Protocol: Protocol. Recombinant human ASGPR protein (R&D Systems Catalog #4394-AS; Minneapolis, MN, USA) was reconstituted to 200 μg/ml in Assay Buffer (20 mM HEPES (TEKnova Catalog #H1030; Hollister, CA, USA), 150 mM NaCl (Promega Catalog #V4221; Madison, WI, USA), 1 mM CaCl2 (Alfa Aesar Catalog #J63122; Tewksbury, MA, USA)). Nunc-Immuno™ MicroWell™ 96 well solid plates (Sigma Catalog #M9410; Burlington, MA, USA) were coated with 300 ng of ASGPR protein per well by diluting the protein to 3 μg/ml in Assay Buffer and adding 100 μl to each well. A few wells were left without ASGPR protein for controls in which 100 μl of Assay Buffer were added. The plate was incubated overnight at 4° C. After overnight incubation, coating solution was discarded and the wells were blocked with 150 μl/well of Blocking Buffer (1% Bovine Serum Albumin (BSA) in Assay Buffer; Sigma Catalog #A3059-100G; Burlington, MA, USA) for 2 hours at 4° C. Frozen stock of GalNAc-PAA-biotin (GlycoNZ Catalog #GNZ-0031-BP, 1 mg/ml in Assay Buffer; Auckland, NZ) was thawed and diluted 1:1000 in Assay Buffer to create a 1000 ng/ml 2× working solution. Competitor compounds were reconstituted to 100 mM in DMSO. If compounds were insoluble at this concentration, they were further diluted in DMSO. Compounds were diluted 1 to 12.5 (10 μl DMSO stock diluted to 125 μl) in Assay Buffer, then 5 fold serially diluted. The DMSO concentration in the 2× working solution of the first well is 8%, for a final starting DMSO concentration of 4%. In a separate deep-well plate (NEST Catalog #503501; Woodbridge, NJ, USA), equal amounts of 1000 ng/ml GalNAc-PAA and serially diluted compounds were combined, for a final concentration of 500 ng/ml GalNAc-PAA and 4 mM compound (top concentration), assuming that the compound concentration of the DMSO stock solution was 100 mM. Plates with Blocking Buffer were removed from refrigerator and blocking solution was discarded. The wells were washed with 200 μl of Assay Buffer three times. After the last wash, plates were tapped dry on paper towels to remove excess liquid.
# Next, 100 μl of GalNAc-PAA-biotin premixed with serially diluted compounds was added into each well. For control, several wells containing 500 ng/ml GalNAc-PAA-biotin were included. Plates were incubated for 2 hours at room temperature on an orbital shaker at 100 rpm. After incubation, compound solutions were discarded and each well was washed with 200 μl Assay Buffer three times. Streptavidin-HRP (R&D Systems catalogue #DY998; Minneapolis, MN, USA) was diluted 1:200 in Assay Buffer. 100 μl of the diluted Streptavidin-HRP was added to each well and incubated at room temperature for 45 minutes, protected from light. Streptavidin-HRP was then discarded and each well was washed with 200 μl of Assay Buffer three times. 3,3′,5,5′-Tetramethylbenzidine (TMB) Substrate color reagents A and B (R&D Systems catalog #DY999; Minneapolis, MN, USA) were mixed at a ratio of 1:1 and 100 μl was added to each well. After a 5 minute incubation, 50 μl of Stop Solution (R&D Systems catalog #DY994; Minneapolis, MN, USA) was added to each well. Plates were shaken for 10 seconds using the orbital shaker in the plate reader and read at 450 nm. […] Normalized data were analyzed using a nonlinear-fit of normalized data with a four-parameter sigmoidal dose-response variable slope model.
# [2] = target: human TNF-α (Homo sapiens, UniProt P01375); assay: TNF-α thermal melt assay; assay type: binding; parameters: Amino acids 77-233 of Human TNF-α protein with an N-terminal GST tag; GST (N, cleaved yes); made in house; host or cells: Escherichia coli (BL21 NiCo); details: thermal melt, SYPRO Orange, Kd calculated as in Matulis et al.; read-out: TM Kd
# Sequence of human TNF-α (P01375 77-233): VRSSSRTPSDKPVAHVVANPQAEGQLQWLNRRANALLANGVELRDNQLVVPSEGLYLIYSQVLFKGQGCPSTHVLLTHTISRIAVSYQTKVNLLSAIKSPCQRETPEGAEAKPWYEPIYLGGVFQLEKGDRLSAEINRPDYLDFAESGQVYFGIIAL
# Protocol: Protein was purified using glutathione agarose purification columns (Pierce™, Waltham, MA, USA). Following purification, the GST tag was removed using HRV3c protease (Pierce™, Waltham, MA, USA) and the GST tag and the TNF-α were separated via ion exchange chromatography using a 20 mM HEPES pH 8.0 buffer system ramping from 0 to 1 M NaCl over 12 column volumes with 5 ml of Q Sepharose (HiScreen Q HP, Cytiva™, Marlborough, MA, USA). The final protein includes the amino acids GPLGSG at the N-terminus of the protein.
# Protein was heated from 20° C. to 95° C. at one degree per minute in a Roche Opus384 qPCR machine.
Ki [1],Kd [2],SMILES
800 nM,55 nM,CCC(=O)N[C@H]1CO[C@H](COCCOCCOCCOCCn2cc(COCCNC(=O)CNC(=O)CCOCCOCCC(=O)N3CCN(Cc4ccc(-c5c[nH]c6ccncc56)c(OCCc5ccc(-c6cccc7ccncc67)cc5)c4)CC3)nn2)[C@H](O)[C@@H]1O [Compound 107]
200 nM,1000 nM,CCC(=O)NC1COC(COCCOCCOCCOCCn2cc(COCC(COCc3cn(CCOCCOCCOCCOCC4OCC(NC(=O)CC)C(O)C4O)nn3)(COCc3cn(CCOCCOCCOCCOCC4OCC(NC(=O)CC)C(O)C4O)nn3)NC(=O)CNC(=O)CCC(=O)N3CCN(Cc4ccc(-c5c[nH]c6ccncc56)c(OCCc5ccc(-c6cccc7ccncc67)cc5)c4)CC3)nn2)C(O)C1O (stereo not shown) [Compound 104]
1100 nM,50 nM,CCC(=O)N[C@H]1CO[C@H](COCCOCCOCCOCCn2cc(COCCNC(=O)CNC(=O)CCC(=O)N3CCN(Cc4ccc(-c5c[nH]c6ccncc56)c(OCCc5ccc(-c6cccc7ccncc67)cc5)c4)CC3)nn2)[C@H](O)[C@@H]1O [Compound 106]
600 nM,65 nM,CCC(=O)NC1COC(COCCOCCOCCOCCn2cc(COCCNC(=O)CNC(=O)CCOCCOCCOCCOCCOCCOCCC(=O)N3CCN(Cc4ccc(-c5c[nH]c6ccncc56)c(OCCc5ccc(-c6cccc7ccncc67)cc5)c4)CC3)nn2)C(O)C1O (stereo not shown) [Compound 105]
200 nM,1000 nM,CCC(=O)NC1COC(COCCOCCOCCOCCn2cc(COCC(COCc3cn(CCOCCOCCOCCOCC4OCC(NC(=O)CC)C(O)C4O)nn3)(COCc3cn(CCOCCOCCOCCOCC4OCC(NC(=O)CC)C(O)C4O)nn3)NC(=O)CNC(=O)CCOCCOCCC(=O)N3CCN(Cc4ccc(-c5c[nH]c6ccncc56)c(OCCc5ccc(-c6cccc7ccncc67)cc5)c4)CC3)nn2)C(O)C1O (stereo not shown) [Compound 103]
